From US11299460B2, “MDM2 inhibitor, preparation method therefor, pharmaceutical composition thereof and use thereof” (SHANGHAI LONGWOOD BIOPHARMACEUTICALS CO., LTD., priority 2018, dated 2022)

Experiments:
[1] = system: p21 transcripts in SJSA-1 cells; test: p21 assay (QRT-PCR of p21 transcripts in SJSA-1 cells); assay type: cell-based, human; details: Homo sapiens, SJSA-1, 7 h, cell assay (SJSA-1 cell); p21 induction, 7 hours incubation
From the text: Inhibition of the interaction between hMDM2 and p53 results in the activation of the p53 pathway via the stabilization and accumulation of p53. P53 activates the transcription of many genes, one of which is p21<WAFT/CIP1>. To evaluate the potency of hMDM2 inhibitors, quantitative reverse transcription polymerase chain reaction (QRT PCR) was used to measure the level of p21 transcripts of compound related cells relative to that of control cells treated with dimethyl sulfoxide (DMSO).
In the first day, SJSA-1 cells were inoculated into 100 μL growth medium (RPMI1640; 10 mM HEPES; 1 mM sodium pyruvate; 1× penicillin streptomycin glutamine (PSQ) and 10% FBS, all reagents were obtained from Invitrogen) at a density of 3×10^4 cells in 96-well cell culture plate. The cells were cultured overnight at 37° C. and 5% CO2 atmosphere.
In the second day, hMDM2 inhibitor was gradient diluted in DMSO(Sigma-Aldrich; St. Louis, Mo.). 5 μl of each compound dilution were added into 245 μl filtered assay medium (RPMI1640, 10% FBS, 10 mM HEPES, 1 mM sodium pyruvate and 1×PSQ). Or the assay was conducted with the presence of 10% human serum or 10% mouse serum, or without serum. Growth medium was removed from inoculated SJSA-1 cell culture plate and replaced by 100 μL assay medium for each well. Then 100 μL culture medium containing diluted inhibitor was added into each well to a final volume 200 μL. The final concentration of the compound was in the range of 0.049 μm-50 μm by dose titration with DMSO as control. The cells were incubated at 37° C. and 5% CO2 for 7 hours with the presence of inhibitor. When incubation was completed, growth medium was removed from cells and the plate was stored at −80° C.
In the third day, giagen BioRobot Universal workstation was used to purify total RNA from SJSA-1 cells treated with inhibitor and DMSO respectively. The purification procedure herein was according to RNeasy96BioRobot8000 test kit provided by Qiagen, Valencia, Calif.
To measure the level of existing p21 transcripts, QRT-PCR was introduced. The levels of p21, housekeeping genes and glyceraldehyde 3-phosphate dehydrogenase (GAPDH) were determined by the total RNA from each inhibitor- or DMSO-treated well by duplicated test. The QRT-PCR reaction was performed on the Applied Biosystems prism 7900ht instrument using the relative quantitative (ΔΔ Ct) method according to the following cycle conditions: 48° C. for 30 minutes, then 95° C. for 10 minutes, and then was 40 cycles consisting of 95° C. for 15 seconds and 60° C. for 1 minute. The data were analyzed by using Applied Biosystems SDS2.2 software, with GAPDH as inner control and DMSO treated samples as calibrators. SDS2.2 software calculated the relative quantification (RQ) or increased fold of p21 level relative to DMSO control for each treated sample. The maximum (100%) p21 induction fold was defined by the maximum value of the fitting curve of the reference compound. The p21 induction fold of each inhibitor dose tested was converted to a value representing the percentage of the maximum value. XLFit software (ID business solutions, Alameda, Calif.) was used to make dose-response curve to calculate the IC50 transit value of each inhibitor tested.

GST-hMDM2 (aa1-188) = target: T1, GST-hMDM2 (aa1-188) (Homo sapiens, UniProt Q00987); test: Homogeneous time resolved fluorometry (HTRF assay), hMDM2/p53 interaction; assay type: binding; details: HTRF analysis; GST-hMDM2 (aa1-188) / biotinylated-p53 (aa1-83)
T1 construct: The amino acid residues 1-188 of human MDM2 were expressed as GST-hMDM2 fusion protein; made in house; host or cells: E. coli
Description: Residues 1-83 of human p53 were expressed as avitag <TM>-trxa-6×his fusion protein (biotinlabelled p53) in E. coli. Each protein was separated from cell homogenate by affinity chromatography.
Specifically, 10 μL GST-hMDM2 was incubated with 10 uL diluted compound in 10% DMSO for 20 minutes at room temperature. 20 μL biotinlabelled-p53 was added to the mixture of GST-hMDM2 and then incubated at room temperature for 60 min. A 10 μL detection buffer consisting of SA-XLent, anti-GST cavernous compound antibody and KF was added to the reaction solution consisting of GST-hMDM2, biotinlabelled-p53 and the compound and was placed at room temperature to achieve equilibrium and maintained for more than 4 h. The final concentration of DMSO in the reaction solution was 2%. Time resolved fluorescence were measured on a microplate multi label reader. The inhibition percentage was calculated relative to nutlin-3.

T1 sequence (Q00987 1-188): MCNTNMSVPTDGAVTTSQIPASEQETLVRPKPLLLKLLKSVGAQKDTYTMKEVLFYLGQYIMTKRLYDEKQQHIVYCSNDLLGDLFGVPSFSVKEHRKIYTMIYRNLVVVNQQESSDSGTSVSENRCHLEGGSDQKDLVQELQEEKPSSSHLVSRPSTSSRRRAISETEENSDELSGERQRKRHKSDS

SMILES	IC50 [1]	IC50 (GST-hMDM2 (aa1-188))
CC(C)[C@@H](CS(=O)(=NC(=O)N1CCCC1)C(C)C)N1C(=O)[C@@](C)(CC(=O)O)C[C@H](c2cccc(Cl)c2)[C@H]1c1ccc(Cl)cc1 (stereo partly drawn) [Compound 047]	< 1000 nM	< 10 nM
CCOC(=O)N=S(=O)(C[C@H](C(C)C)N1C(=O)[C@@](C)(CC(=O)O)C[C@H](c2cccc(Cl)c2)[C@H]1c1ccc(Cl)cc1)C(C)C (stereo partly drawn) [Compound 048]	< 1000 nM	< 10 nM
COc1cc(NC(=O)C[C@@]2(C)C[C@H](c3cccc(Cl)c3)[C@@H](c3ccc(Cl)cc3)N([C@H](CS(=O)(=NC(=O)N(C)C)C(C)C)C(C)C)C2=O)ccc1C(=O)O (stereo partly drawn) [Compound 049]	< 1000 nM	< 10 nM
COc1cc(NC(=O)C[C@@]2(C)C[C@H](c3cccc(Cl)c3)[C@@H](c3ccc(Cl)cc3)N([C@H](CS(=O)(=NC(=O)N3CCOCC3)C(C)C)C(C)C)C2=O)ccc1C(=O)O (stereo partly drawn) [Compound 050]	< 1000 nM	< 10 nM
COc1cc(NC(=O)C[C@@]2(C)C[C@H](c3cccc(Cl)c3)[C@@H](c3ccc(Cl)cc3)N([C@H](CS(=O)(=NC(=O)N3CCCC3)C(C)C)C(C)C)C2=O)ccc1C(=O)O (stereo partly drawn) [Compound 051]	< 1000 nM	< 10 nM
CCOC(=O)N=S(=O)(C[C@H](C(C)C)N1C(=O)[C@@](C)(CC(=O)Nc2ccc(C(=O)O)c(OC)c2)C[C@H](c2cccc(Cl)c2)[C@H]1c1ccc(Cl)cc1)C(C)C (stereo partly drawn) [Compound 052]	< 1000 nM	< 10 nM
COc1cc(C(=O)O)ccc1NC(=O)C[C@@]1(C)C[C@H](c2cccc(Cl)c2)[C@@H](c2ccc(Cl)cc2)N([C@H](C[S@](=O)(=NC(C)=O)C(C)C)C(C)C)C1=O [Compound 053]	< 1000 nM	< 10 nM

The next lines start with the values.

IC50 [1]	IC50 (GST-hMDM2 (aa1-188))	SMILES
< 1000 nM	< 10 nM	COc1cc(NC(=O)C[C@@]2(C)C[C@H](c3cccc(Cl)c3)[C@@H](c3ccc(Cl)cc3)N([C@H](C[S@](=O)(=NC(C)=O)C(C)C)C(C)C)C2=O)ccc1C(=O)O [Compound 042]
< 1000 nM	< 10 nM	COc1cc(NC(=O)C[C@@]2(C)C[C@H](c3cccc(Cl)c3)[C@@H](c3ccc(Cl)cc3)N([C@H](CS(=O)(=NC(N)=O)C(C)C)C(C)C)C2=O)ccc1C(=O)O (stereo partly drawn) [Compound 043]
< 1000 nM	< 10 nM	CC(C)[C@@H](CS(=O)(=NC(=O)N(C)C)C(C)C)N1C(=O)[C@@](C)(CC(=O)O)C[C@H](c2cccc(Cl)c2)[C@H]1c1ccc(Cl)cc1 (stereo partly drawn) [Compound 045]
< 1000 nM	< 10 nM	CC(C)[C@@H](CS(=O)(=NC(=O)N1CCOCC1)C(C)C)N1C(=O)[C@@](C)(CC(=O)O)C[C@H](c2cccc(Cl)c2)[C@H]1c1ccc(Cl)cc1 (stereo partly drawn) [Compound 046]
< 1000 nM	< 10 nM	COc1cc(C(=O)O)ccc1NC(=O)C[C@@]1(C)C[C@H](c2cccc(Cl)c2)[C@@H](c2ccc(Cl)cc2)N([C@H](C[S@](=O)(=NC(N)=O)C(C)C)C(C)C)C1=O [Compound 054]
